# Experimental data published in patent US20110195505A1, “BACTERIAL STRAINS FOR BUTANOL PRODUCTION” (priority 2009, published 2011).
# Marks after values point to notes of the source that are not given here.
# Legend:
# [1] = test system: BP63 (L. plantarum PN0512ΔpyrFΔfabZ1); assay: Fatty acid supplements supporting growth of the fabZ1 mutant; format: cell-based; conditions: fatty acid supplied at 80 mg/L; overnight incubation, OD600
# Protocol: With 100 or 200 mg/liter of oleic acid the growth of BP63 was equivalent to that of the fabZ1^+ control strain, BP15. […] Thus, we conclude that fabZ1 in L. plantarum has the same function as FabN in E. faecalis (Wang, H. and Cronan, J. E. 2004. Functional replacement of the FabA and FabB proteins of Escherichia coli fatty acid synthesis by Enterococcus faecalis FabZ and FabF homologs. J. Biol. Chem. 279, 34489-95). To further test the range of fatty acid supplements that support growth of the fabZ1 mutant, several other fatty acids were supplied at 80 mg/L to the semi-synthetic LAB medium as described above. BP63 and the parental control BP15 were inoculated from the working stocks. After overnight incubation, the OD600 was measured. The growth of BP15 was not inhibited by any of the fatty acids tested. The Table 9 below summarizes the results for the fabZ1 mutant strain, BP63.
# [2] = test system: L. plantarum strain PN0512; assay: FAME analysis of membrane lipids of stearic acid fed cultures; format: cell-based, Lactobacillus plantarum
# Protocol: The membrane lipids were extracted by modified Bligh and Dyer protocol (Can. J. Biochem. Physiol. (1959) 37:911-17). The cell pellet prepared as described above was suspended in a mixture of 0.5 ml CHCl3 and 1 ml CH3OH, and transferred to a 13×100 mm tube with a screw top cap. The cap was screwed on about ¾ of the way (i.e., not tight), and the tube was incubated at 40° C. for 30 min. The tube was cooled and an additional 0.5 ml CHCl3 and 1 ml H2O were added the mixture. […] The two phases were equilibrated by vortexing. The two phases were allowed to separate; then the lower CHCl3 layer was removed and transferred to another 13×100 mm tube with a screw top cap. With the cap removed, the CHCl3 was evaporated under a stream of N2. Methyl esters of the fatty acids in the residue were then formed using one of the following procedures.
# 1 ml freshly made 1.0 M CH3ONa in CH3OH was added to the tubes containing lipid samples extracted by the Bligh and Dyer method as described above. The caps were placed on tubes, screwed on about ¾ of the way (i.e., not tight), then the tubes were heated at 60° C. for 30 minutes. The mixture was chilled in ice bath and 1 ml of 1.0 N HCl was added to the solution in the tubes. The pH of the resulting solution was checked with pH paper to make sure a pH of 7 or lower had been reached. 0.5 ml hexane was added into the test tube and mixed well by vortexing. The tubes were allowed to sit for a few minutes until two phases formed. The top hexane layer was removed and placed in a separate tube for storage until analysis, which was done by GC/FID and/or GC/MS. 2 μl of the hexane layer was injected into an Agilent GC (model 6890)/MS (model 5973). For routine samples a Supelco Equity-1 column (15 m×0.25 mm×0.25 μm film thickness; catalog #28045-U) was used with an FID detector (GC/FID). When an unknown peak needed to be identified, the same column was used with an Agilent MSD detector (GC/MS). When samples requiring difficult separations that were impossible to achieve on a 15 m column were analyzed (e.g., the separation of oleic from elaidic acid), a Supelco S-2380 column (100 m×0.25 mm×0.25 μm film thickness; catalog #24317) was used.
# For preparation of samples for FAME analysis, the working stock was used to inoculate 40 ml of medium containing free fatty acids and the cultures were grown overnight. The cell pellet was harvested by centrifugation and was washed twice with phosphate buffered saline (PBS, Bio-Rad Laboratories, Hercules, Calif.) and 5 g/l BSA, then two more times with PBS. Cell pellets were stored at −80° C. until analyzed by FAME using a transesterification protocol, which quantifies fatty acids that have been incorporated in membrane lipids, but not free fatty acids associated with the cell membrane. The FAME analysis is described by Christie (1993) (In Advances in Lipid Methodology—Two, pp. 69-111, Ed. W. W. Christie, Oily Press, Dundee).
# Cultures of Lactobacillus plantarum strain PN0512 were grown in media containing stearic acid along with control cultures (with no added fatty acids to the media), as described in General Methods. The membrane composition was analyzed by FAME analysis as described in General Methods as well. The results of FAME analyses shown in Table 6 indicate that stearic acid (C18:0), when added to the growth medium of a culture of strain PN0512, was incorporated into the cell membrane thereby resulting in a substantial increase of the amount of stearic fatty acid in the cell membrane.
# [3] = test system: L. plantarum strain PN0512; assay: Growth yield (OD600) in isobutanol, stearic acid fed and unfed cultures; format: cell-based, Lactobacillus plantarum; conditions: for OD600 fed Stearic: stearic acid 50 mg per liter, 25 hours, 30° C.
# Protocol: For growth yield experiments, 5 ml of medium with test fatty acids (10-500 mg per liter) and varying concentrations of isobutanol in 15 ml screw cap tubes was inoculated with 12.5 μl of the working stock giving an initial OD600 of 0.012. The caps were tightly sealed and incubated at 30° C. on a roller drum for 20 to 26 hours, at which time 1.0 ml was removed and OD600 was measured with a blank of medium amended with the fatty acid. All solvent concentrations are reported as % (w/v).
# Growth of L. plantarum cultures in the media described in General Methods and containing varying concentrations of isobutanol was measured and compared with the cultures fed (supplemented with) stearic acid at a final concentration of 50 mg per liter of medium. Cultures were prepared as described in General Methods.
smiles,measurement,setting,value
CCCCCCCC/C=C/CCCCCCCC(=O)O [Elaidic],Supports growth of BP63,[1],YES
CCCCCCCC/C=C\CCCCCCCCCCCC(=O)O [Erucic],Supports growth of BP63,[1],Very slight growth
CCCCC/C=C\C/C=C\CCCCCCCC(=O)O [Linoleic],Supports growth of BP63,[1],YES
"CCCCCCCCCCCCCC(=O)O [Myristic, Tetradecanoic Acid]",Supports growth of BP63,[1],no
"CCCCCCCCCCCCCCCC(=O)O [Palmitic, Hexadecanoic Acid]",Supports growth of BP63,[1],no
CCCCCC/C=C\CCCCCCCC(=O)O [Palmitoleic],Supports growth of BP63,[1],YES
"CCCCCCCCCCCCCCCCCC(=O)O [Stearic Acid, Octadecanoic Acid]","Membrane Fatty Acid Effect (stearic acid fed)/(stearic acid not fed), C16:0",[2]; ratio of molar %,0.52
same,"Membrane Fatty Acid Effect (stearic acid fed)/(stearic acid not fed), C16:1",[2]; ratio of molar %,1.30
same,"Membrane Fatty Acid Effect (stearic acid fed)/(stearic acid not fed), C18:0",[2]; ratio of molar %,33.2
same,"Membrane Fatty Acid Effect (stearic acid fed)/(stearic acid not fed), C18:1, cis",[2]; ratio of molar %,0.78
same,"Membrane Fatty Acid Effect (stearic acid fed)/(stearic acid not fed), cyc-C19:0",[2]; ratio of molar %,1.23
same,"Membrane Fatty Acid Content, C16:0",[2]; stearic acid (C18:0) fed,14.1 molar %
same,"Membrane Fatty Acid Content, C16:1",[2]; stearic acid (C18:0) fed,10.0 molar %
same,"Membrane Fatty Acid Content, C18:0",[2]; stearic acid (C18:0) fed,16.6 molar %
same,"Membrane Fatty Acid Content, C18:1, cis",[2]; stearic acid (C18:0) fed,34.4 molar %
same,"Membrane Fatty Acid Content, cyc-C19:0",[2]; stearic acid (C18:0) fed,25.0 molar %
same,increase of molar % of stearic acid in the cell membrane,[2]; with stearic acid feeding,more than 30 fold
same,increase of molar ratio saturated/unsaturated fatty acids,[2]; with stearic acid feeding,16%
same,"molar ratio of saturated fatty acids (C16:0 and C18:0) to unsaturated fatty acids (C16:1 and C18:1, cis)",[2]; with stearic acid feeding (0.53 without),0.69
same,OD600 Ratio OD600fed/OD600unfed control,[3]; 0 % w/v isobutanol,1.08
same,OD600 fed Stearic,[3]; 0 % w/v isobutanol,1.452
same,OD600 Ratio OD600fed/OD600unfed control,[3]; 2.3 % w/v isobutanol,1.18
same,OD600 fed Stearic,[3]; 2.3 % w/v isobutanol,0.860
same,OD600 Ratio OD600fed/OD600unfed control,[3]; 2.5 % w/v isobutanol,1.23
same,OD600 fed Stearic,[3]; 2.5 % w/v isobutanol,0.422
same,OD600 Ratio OD600fed/OD600unfed control,[3]; 2.7 % w/v isobutanol,1.57^b
same,OD600 fed Stearic,[3]; 2.7 % w/v isobutanol,0.206
same,OD600 Ratio OD600fed/OD600unfed control,[3]; 2.9 % w/v isobutanol,1.92
same,OD600 fed Stearic,[3]; 2.9 % w/v isobutanol,0.098
same,growth yield of stearic acid fed cultures compared with control cultures,[3]; all tested concentrations of isobutanol,greater
same,Supports growth of BP63,[1],no
CCCCCCCC/C=C\CCCCCCCCCC(=O)O [cis 11-eicosenoic],Supports growth of BP63,[1],YES
CCCCCC/C=C\CCCCCCCCCCCC(=O)O [cis 13 eicosenoic],Supports growth of BP63,[1],no
"CCCCC/C=C\C/C=C\CCCCCCCCCC(=O)O [cis-11,14-Eicosadienoic]",Supports growth of BP63,[1],Partial growth
CCCCCC/C=C\CCCCCCCCCC(=O)O [cis-Vaccenic],Supports growth of BP63,[1],YES
"CCCCCCCC[C@@H]1C[C@@H]1CCCCCCCC(=O)O [dihydrosterculic, Dihydrosterculic acid]",Supports growth of BP63,[1],YES
